Patent US12421240B2, “Hydropyrazino[1,2-d][1,4]diazepine compounds for the treatment of autoimmune disease” (Hoffmann-La Roche Inc., priority 2019, dated 2025)

Target: T1, human TLR9 (Homo sapiens, UniProt Q9NR96)
T1 sequence (Q9NR96 26-1032): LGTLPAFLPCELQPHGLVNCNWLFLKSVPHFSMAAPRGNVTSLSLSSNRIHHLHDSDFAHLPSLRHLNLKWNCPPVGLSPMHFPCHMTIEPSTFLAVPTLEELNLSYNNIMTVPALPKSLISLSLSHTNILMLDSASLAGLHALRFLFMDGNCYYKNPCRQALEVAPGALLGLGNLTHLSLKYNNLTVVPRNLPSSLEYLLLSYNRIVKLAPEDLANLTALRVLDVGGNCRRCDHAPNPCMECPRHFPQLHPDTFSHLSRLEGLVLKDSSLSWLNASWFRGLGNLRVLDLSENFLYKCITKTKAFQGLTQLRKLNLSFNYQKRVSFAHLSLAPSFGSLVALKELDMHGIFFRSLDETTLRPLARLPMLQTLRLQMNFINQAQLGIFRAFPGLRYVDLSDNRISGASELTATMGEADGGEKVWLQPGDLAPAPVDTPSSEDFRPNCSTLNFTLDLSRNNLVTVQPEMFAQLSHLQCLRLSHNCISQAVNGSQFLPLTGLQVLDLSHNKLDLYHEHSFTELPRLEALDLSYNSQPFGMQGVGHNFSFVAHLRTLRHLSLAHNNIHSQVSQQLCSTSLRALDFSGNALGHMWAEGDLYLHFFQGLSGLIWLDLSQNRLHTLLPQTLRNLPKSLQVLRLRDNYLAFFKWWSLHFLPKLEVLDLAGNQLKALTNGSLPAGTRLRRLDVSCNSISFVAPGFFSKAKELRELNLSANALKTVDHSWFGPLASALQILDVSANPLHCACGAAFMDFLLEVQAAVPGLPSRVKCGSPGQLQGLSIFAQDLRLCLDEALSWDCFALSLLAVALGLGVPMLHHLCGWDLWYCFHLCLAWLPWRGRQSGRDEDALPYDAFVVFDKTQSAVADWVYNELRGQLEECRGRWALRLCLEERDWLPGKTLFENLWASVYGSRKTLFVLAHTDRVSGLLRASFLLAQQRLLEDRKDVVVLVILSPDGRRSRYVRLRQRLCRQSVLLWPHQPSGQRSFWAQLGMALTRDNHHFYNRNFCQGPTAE
Experiment: HEK293-Blue-hTLR-9 cells assay (SEAP reporter, ODN2006 stimulation)
Format: cell-based
Conditions: HEK293-Blue-hTLR9 cells, ODN2006 ligand, 20 hrs; read-out: HEK/hTLR9 IC50
Method: The following tests were carried out in order to determine the activity of the compounds of formula (I), (Ia) or (Ib) in HEK293-Blue-hTLR-7/8/9 cells assay.
HEK293-Blue-hTLR-9 Cells Assay:
A stable HEK293-Blue-hTLR-9 cell line was purchased from InvivoGen (Cat. #: hkb-htlr9, San Diego, California, USA). These cells were originally designed for studying the stimulation of human TLR9 by monitoring the activation of NF-κB. A SEAP (secreted embryonic alkaline phosphatase) reporter gene was placed under the control of the IFN-β minimal promoter fused to five NF-κB and AP-1-binding sites. The SEAP was induced by activating NF-κB and AP-1 via stimulating HEK-Blue hTLR9 cells with TLR9 ligands. Therefore the reporter expression was declined by TLR9 antagonist under the stimulation of a ligand, such as ODN2006 (Cat. #: tlrl-2006-1, Invivogen, San Diego, California, USA), for incubation of 20 hrs. The cell culture supernatant SEAP reporter activity was determined using QUANTI-Blue™ kit (Cat. #: rep-qb1, Invivogen, San Diego, California, USA) at a wavelength of 640 nm, a detection medium that turns purple or blue in the presence of alkaline phosphatase.
HEK293-Blue-hTLR9 cells were incubated at a density of 250,000˜450,000 cells/mL in a volume of 170 μL in a 96-well plate in Dulbecco's Modified Eagle's medium (DMEM) containing 4.5 g/L glucose, 50 U/mL penicillin, […], 2 mM L-glutamine, 10% (v/v) heat-inactivated fetal bovine serum with addition of 20 μL test compound in a serial dilution in the presence of final DMSO at 1% and 10 μL of 20 uM ODN2006 in above DMEM, perform incubation under 37° C. in a CO2 incubator for 20 hrs. Then 20 μL of the supernatant from each well was incubated with 180 μL Quanti-blue substrate solution at 37° C. for 2 h and the absorbance was read at 620-655 nm using a spectrophotometer. The signaling pathway that TLR9 activation leads to downstream NF-κB activation has been widely accepted, and therefore similar reporter assay was modified for evaluating TLR9 antagonist.

Row | IC50 [nM] | Structure (SMILES)
1 | 207 | C[C@@H]1CN(c2ccc(C#N)c3ncccc23)C[C@@H]2CCN(c3ccc(N4CCNCC4)nc3)CCN21 [Example 1, 5-[(4R,10aS)-4-methyl-8-(6-piperazin-1-yl-3-pyridyl)-1,3,4,6,7,9,10,10a-octahydropyrazino [1,2-d][1,4]diazepin-2-yl]quinoline-8-carbonitrile]
2 | 59.3 | C[C@@H]1CN(c2ccc(C#N)c3ncccc23)C[C@@H]2CCN(c3cnc(N4CCNCC4)nc3)CCN21 [Example 2, 5-[(4R,10aS)-4-methyl-8-(2-piperazin-1-ylpyrimidin-5-yl)-1,3,4,6,7,9,10,10a-octahydropyrazino[1,2-d][1,4]diazepin-2-yl]quinoline-8-carbonitrile]
3 | 52 | C[C@@H]1CN(c2ccc(C#N)c3ncccc23)C[C@@H]2CCN(c3ccc([C@H]4CNCCO4)cc3)CCN21 [Example 3, 5-[(4R,10aS)-4-methyl-8-[4-[(2S)-morpholin-2-yl]phenyl]-1,3,4,6,7,9,10,10a-octahydropyrazino[1,2-d][1,4]diazepin-2-yl]quinoline-8-carbonitrile]
4 | < 31.8 | C[C@@H]1CN(c2ccc(C#N)c3ncccc23)C[C@@H]2CCN(c3cncc4c3CCNC4)CCN21 [Example 4, 5-[(4R,10aS)-4-methyl-8-(5,6,7,8-tetrahydro-2,7-naphthyridin-4-yl)-1,3,4,6,7,9,10,10a-octahydropyrazino[1,2-d][1,4]diazepin-2-yl]quinoline-8-carbonitrile]
5 | 72.1 | C[C@@H]1CN(c2ccc(C#N)c3ncccc23)C[C@@H]2CCN(c3ccc4c(n3)CNCC4)CCN21 [Example 5, 5-[(4R,10aS)-4-methyl-8-(5,6,7,8-tetrahydro-1,7-naphthyridin-2-yl)-1,3,4,6,7,9,10,10a-octahydropyrazino[1,2-d][1,4]diazepin-2-yl]quinoline-8-carbonitrile]
6 | 101 | C[C@@H]1CN(c2ccc(C#N)c3ncccc23)C[C@@H]2CCN(c3ccc4c(n3)CCNC4)CCN21 [Example 6, 5-[(4R,10aS)-4-methyl-8-(5,6,7,8-tetrahydro-1,6-naphthyridin-2-yl)-1,3,4,6,7,9,10,10a-octahydropyrazino[1,2-d][1,4]diazepin-2-yl]quinoline-8-carbonitrile]
7 | 81.9 | C[C@@H]1CN(c2ccc(C#N)c3ncccc23)C[C@@H]2CCN(c3cc4c(cn3)CNCC4)CCN21 [Example 7, 5-[(4R,10aS)-4-methyl-8-(5,6,7,8-tetrahydro-2,7-naphthyridin-3-yl)-1,3,4,6,7,9,10,10a-octahydropyrazino[1,2-d][1,4]diazepin-2-yl]quinoline-8-carbonitrile]
8 | 62.2 | C[C@@H]1CN(c2ccc(C#N)c3ncccc23)C[C@@H]2CCN(Cc3cc4c(cn3)CNCC4)CCN21 [Example 8, 5-[(4R,10aS)-4-methyl-8-(5,6,7,8-tetrahydro-2,7-naphthyridin-3-ylmethyl)-1,3,4,6,7,9,10,10a-octahydropyrazino[1,2-d][1,4]diazepin-2-yl]quinoline-8-carbonitrile]
9 | 35 | C[C@@H]1CN(c2ccc(C#N)c3ncccc23)C[C@@H]2CCN(Cc3cc4c(cn3)CCNC4)CCN21 [Example 9, 5-[(4R,10aS)-4-methyl-8-(5,6,7,8-tetrahydro-2,6-naphthyridin-3-ylmethyl)-1,3,4,6,7,9,10,10a-octahydropyrazino[1,2-d][1,4]diazepin-2-yl]quinoline-8-carbonitrile]
10 | < 31.8 | C[C@@H]1CN(c2ccc(C#N)c3ncccc23)C[C@@H]2CCN(Cc3cnc4c(c3)CNCC4)CCN21 [Example 10, 5-[(4R,10aS)-4-methyl-8-(5,6,7,8-tetrahydro-1,6-naphthyridin-3-ylmethyl)-1,3,4,6,7,9,10,10a-octahydropyrazino[1,2-d][1,4]diazepin-2-yl]quinoline-8-carbonitrile]
11 | 43.8 | C[C@@H]1CN(c2ccc(C#N)c3ncccc23)C[C@@H]2CCN(Cc3ccc4c(c3)CNCC4)CCN21 [Example 12, 5-[(4R,10aS)-4-methyl-8-(1,2,3,4-tetrahydroisoquinolin-7-ylmethyl)-1,3,4,6,7,9,10,10a-octahydropyrazino[1,2-d][1,4]diazepin-2-yl]quinoline-8-carbonitrile]
12 | 96.4 | C[C@@H]1CN(c2ccc(C#N)c3ncccc23)C[C@@H]2CCN(Cc3ncc(N4CCNCC4)cn3)CCN21 [Example 13, 5-[(4R,10aS)-4-methyl-8-[(5-piperazin-1-ylpyrimidin-2-yl)methyl]-1,3,4,6,7,9,10,10a-octahydropyrazino[1,2-d][1,4]diazepin-2-yl]quinoline-8-carbonitrile]
13 | 35.4 | C[C@@H]1CN(c2ccc(C#N)c3ncccc23)C[C@@H]2CCN(Cc3cncc(N4CCNCC4)c3)CCN21 [Example 16, 5-[(4R,10aS)-4-methyl-8-[(5-piperazin-1-yl-3-pyridyl)methyl]-1,3,4,6,7,9,10,10a-octahydropyrazino[1,2-d][1,4]diazepin-2-yl]quinoline-8-carbonitrile]
14 | < 31.8 | C[C@@H]1CN(c2ccc(C#N)c3ncccc23)C[C@@H]2CCN(Cc3cccc(N4CCNCC4)n3)CCN21 [Example 18, 5-[(4R,10aS)-4-methyl-8-[(6-piperazin-1-yl-2-pyridyl)methyl]-1,3,4,6,7,9,10,10a-octahydropyrazino[1,2-d][1,4]diazepin-2-yl]quinoline-8-carbonitrile]
15 | 45.8 | C[C@@H]1CN(c2ccc(C#N)c3ncccc23)C[C@@H]2CCN(Cc3ccc(N4CCNCC4)cn3)CCN21 [Example 19, 5-[(4R,10aS)-4-methyl-8-[(5-piperazin-1-yl-2-pyridyl)methyl]-1,3,4,6,7,9,10,10a-octahydropyrazino[1,2-d][1,4]diazepin-2-yl]quinoline-8-carbonitrile]
16 | 34.9 | C[C@@H]1CN(c2ccc(C#N)c3ncccc23)C[C@@H]2CCN(Cc3ccc(N4C[C@@H](N)[C@@H](F)C4)cn3)CCN21 [Example 20, 5-[(4R,10aS)-8-[[5-[(3R,4S)-3-amino-4-fluoro-pyrrolidin-1-yl]-2-pyridyl]methyl]-4-methyl-1,3,4,6,7,9,10,10a-octahydropyrazino[1,2-d][1,4]diazepin-2-yl]quinoline-8-carbonitrile]
17 | 62.8 | CO[C@@H]1CN(c2ccc(CN3CC[C@H]4CN(c5ccc(C#N)c6ncccc56)C[C@@H](C)N4CC3)nc2)C[C@H]1N [Example 22, 5-[(4R,10aS)-8-[[5-[(3R,4R)-3-amino-4-methoxy-pyrrolidin-1-yl]-2-pyridyl]methyl]-4-methyl-1,3,4,6,7,9,10,10a-octahydropyrazino[1,2-d][1,4]diazepin-2-yl]quinoline-8-carbonitrile]
18 | 87.4 | CO[C@@H]1CN(c2cnc(CN3CC[C@H]4CN(c5ccc(C#N)n6nccc56)C[C@@H](C)N4CC3)c(F)c2)C[C@H]1N [Example 26, 4-[(4R,10aS)-8-[[5-[(3R,4R)-3-amino-4-methoxy-pyrrolidin-1-yl]-3-fluoro-2-pyridyl]methyl]-4-methyl-1,3,4,6,7,9,10,10a-octahydropyrazino[1,2-d][1,4]diazepin-2-yl]pyrazolo[1,5-a]pyridine-7-carbonitrile]
